Data set [1] has as its system zymosan-induced knee joint swelling in mice. As to the kind of experiment: Zymosan-induced knee arthritis in mice: macroscopic joint swelling. Type of data set: in vivo. Particulars: 600 mg/kg oral gavage, zymosan 180 μg intra-articular, 24 hours, vs vehicle-treated mice. The procedure:
Zymosan injected directly into the knee joint of mice elicits an inflammatory response and is used as a model of arthritis (Verschure et al, Ann. Rheum Dis. 53:455-460, 1994). Endpoints measured in this model include knee joint swelling score, cytokine levels in the synovial tissue and microscopic pathology of the knee.
(§1) Arthritis was induced in mice by intra-articular injection of zymosan (180 μg) into the knee joint (at time zero) of both knees in each mouse. Mice were treated by oral gavage with vehicle (water, n=5) or dapansutrile in vehicle (600 mg/kg, n=4) at times −25 hr, −13 hr, and −1 hr. After zymosan injection at time zero, mice were further treated with vehicle or dapansutrile (600 mg/kg) at times +11 hr and +23 hr. Mice were sacrificed 24 hours following the Zymosan intraarticulr idministration.
Macroscopic joint swelling was assessed on all knees after the skin is removed using a scoring system ranging from 0 to 3, with 0 being no swelling and 3 being severe swelling.

Data set [2] concerns IL-1β release from human monocytes-derived macrophages. As to the kind of experiment: Suppression of IL-1β release from human monocytes-derived macrophages (LPS priming, nigericin release, ELISA). Type of data set: cell-based. How it is done: Peripheral blood mononuclear cells (PBMCs) were isolated from blood of 11 healthy human donors and differenciates in macrophages using GM-CSF (5 ng/ml) for 5 days. They were stimulated with 1 μg/mL with lipopolysaccharide (LPS, priming phase) at time zero. At 30 minutes, they were incubated with different concentrations of dapansutrile (OLT1177®) from 0.001-50 μM. At 4 hours, 10 μM of nigericin (NIG, release phase) was added. At the end of an 5 hour incubation period, the supernatant was harvested and assayed for IL-1β using respective ELISA kits following manafacturer's protocols.

The test system of data set [3] is caspase-1 activity in J774A.1 cells. As to the kind of experiment: Caspase-1 activity in J774A.1 cell lysates after LPS and nigericin stimulation. The note with it: 50 μM, LPS/NIG set at 100%, n=3, p<0.05. Type of data set: cell-based, mouse. The procedure:
(§2) J774A.1 murine macrophages cells were stimulated with 1 μg/ml lipopolysaccharide (LPS) for 4 hours and either nigericin (NIG, 10 μM) or ATP (5 mM) was added for 1 hour. Dapansutrile OLT1177® was added to the cells either 30 minutes following LPS stimulation or at the same time as ATP.
Caspase-1 activity is expressed as percent change of the mean value of each assay (n=3) with LPS/NIG set at 100%. Caspase-1 (Cas-1) activity was reduced by 35% (p<0.05) in an enzymatic assay of cell lysate from stimulated cells in the presence of dapansutrile, comparing with control.

In data set [4] the test system is caspase-1 (p10) in J774A.1 cells. Nature of the data set: Western blot for caspase-1 (p45 and p10) in J774A.1 cells after LPS/ATP stimulation. It counts as cell-based, mouse. The procedure:
as §2
A subunit of activated caspase-1 (p10) was reduced in J774A.1 cells in the presence of dapansutrile.

Data set [5] concerns mouse IL-1β in synovial membrane. As to the kind of experiment: Zymosan-induced knee arthritis in mice: IL-1β in synovial membrane (ELISA). It counts as in vivo. Particulars: 600 mg/kg oral gavage, 24 hours, vs untreated mice. The procedure:
as §1
In addition, synovial membrane was taken from one knee per mouse and the cells were lysed for measurement of mouse IL-1β, using an ELISA kit from R&D Systems, Inc., following manufacturer's protocols. The results are shown as mean±standard error of mean and statistical evaluation is performed.

For data set [6] the following is noted: in vivo; cited from earlier work.

Consider two compounds from US20200170990A1, “METHOD FOR TREATING SCHNITZLER'S SYNDROME” (OLATEC THERAPEUTICS LLC, priority 2017, published 2020).

Turning to `CS(=O)(=O)CCC#N` [dapansutrile, 3-methanesulfonylpropionitrile], in data set [1], the “Macroscopic joint swelling (score 0 to 3)” value is “significant reduction in the joint swelling”. The “Release of IL-1β from stimulated monocytes-derived macrophages” value in data set [2] (LPS priming, nigericin release, compared to control) is “suppresses the release of IL-1β”. The “Concentration at which maximum suppression effect on IL-1β release was observed” value in data set [2] (human monocytes-derived macrophages, LPS 1 μg/mL + nigericin 10 μM, tested 0.001-50 μM) came to 1 µM. Besides, the “Reduction of caspase-1 activity” value in data set [3] is 35%. In data set [4], the “Subunit of activated caspase-1 (p10), Western blot” value is “reduced”. Also, the “Level of IL-1β in synovial membrane” value in data set [5] was “significantly reduced”.

For “Canakinumab: fully human selective monoclonal anti-IL-1β antibody”, the Half-life in data set [6] is on record as 28 days.
